Measured values published in publication PMC9916616, “TZD-Based Hybrid Molecules Act as Dual Anti-Mycobacterium tuberculosis and Anti-Toxoplasma gondii Agents” (International Journal of Molecular Sciences, 2023).
≈ marks a conversion by molar mass, not a printed value. Like-named read-outs stand apart in the source and are kept apart here.

Key:
[1] = test system: Toxoplasma gondii RH-GFP tachyzoites; test: In vitro anti-Tg assay (RH-GFP tachyzoite proliferation in Hs27 cells); type: cell-based; details: for SI (selectivity index, CC30/IC50Tg): CC30 in Hs27 / IC50Tg; for IC50: Toxoplasma gondii, HS27, 96 h, read-out: IC50Tg in Tg-Infected Hs27 Cells
T98G glioblastoma cells = test: Cytotoxicity against human glioblastoma T98G cells (MTT); type: cell-based; details: 24 h, read-out: IC50 against T98G cells
Protocol: The T98G glioblastoma cells (ATTC, CRL-1690, Manassas, VA, USA) were cultured in Dulbecco’s Modified Eagle Medium (DMEM, high glucose) (Sigma Aldrich, St. Louis, MO, USA), supplemented with 10% heat-inactivated FBS, penicillin (100 U/mL), and streptomycin (100 U/mL) (Sigma Aldrich, St. Louis, MO, USA). Cells were maintained in a humidified atmosphere of 5% CO2 and 95% air at 37 °C. Stock solutions of the investigated compounds (2, 7, 8 and 10, and temozolomide) were prepared by dissolving solid substances in sterile DMSO. T98G glioblastoma cells were seeded into 96-well sterile plates at a density of 4 × 10^4 cells/mL. After 24 h of incubation, the medium was removed from each well, and then the cells were incubated for the next 24 h with different concentrations of the investigated compounds ([…]) in the medium that contained 2% FBS. Viability of the T98G cells was evaluated using MTT assay. In brief, after 24 h of incubation of the cells with varying concentrations, 15 μL of MTT solution (5 mg/mL) was added to each well. After 3 h of incubation, […] (per well) of 10% SDS buffer solution was added. After overnight incubation, the absorbance was measured at 570 nm using a microplate reader (Epoch, BioTek Instruments, Winooski, VT, USA). Experiments were repeated three times, and the measurements in each experiment were run in quadruplicate. Viability of the investigated cells was expressed as % of the viability of the untreated cells.

[2] = test system: Danio rerio embryos and larvae; test: Fish embryo toxicity test (FET); type: in vivo; details: for Toxicity to zebrafish embryos and larvae: 5 µg/mL and 10 µg/mL, within 96 h of observation; for Mortality and deformity / Concentration at which the impact on occurrence of deformations was noticeable: zebrafish, 96 h exposure; for Mortality and deformity: concentrations above 50 μg/mL
Protocol: Danio rerio (Experimental Medicine Centre, Medical University of Lublin, Poland) were maintained at 28 ± 0.5 °C, under a 14/10 h light/dark cycle with standard aquaculture conditions. After mating, the fertilized eggs were collected within 30 min. Embryos were reared in E3 embryo medium (pH 7.1–7.3; […]) in an incubator (IN 110 Memmert GmbH, Germany) at 28 ± 0.5 °C. The eggs were examined to remove the unfertilized, coagulated and damaged samples. The FET test was performed based on the OECD Guidelines for the Testing Chemicals, Test No. 236. TZD hybrids were weighted, dissolved in DMSO as stock solutions, and diluted in E3 embryo medium to the indicated treatment concentrations. The stock of TZD hybrids and dilutions in E3 embryo medium were freshly prepared before testing. Embryos were incubated at each concentration (5, 10, 15, 25, 50, 75; 100 μg/mL) of TZD hybrids. The final DMSO concentration had no detectable effects on zebrafish development. The test was conducted in 24-well plates, with 5 embryos per well and 10 per group, in triplicate. The covered plates were kept at 28 ± 0.5 °C under the light/dark conditions (12 h/12 h). Embryonic viability, and the malformation rates of each treatment group were recorded at 24, 48, 72, and 96 hpf. All experiments were conducted in accordance with the National Institute of Health Guidelines for the Care and Use of Laboratory Animals and the European Community Council Directive for the Care and Use of Laboratory Animals (2010/63/EU). For the experiments on larvae up to 5 dpf, the agreement of the Local Ethical Commission is not required.

human red blood cells = test: Hemolytic activity determination; type: cell-based
Protocol: Human red blood cell (RBC) concentrate was obtained from the Regional Blood Donation and Transfusion Centre (Lublin, Poland). The RBC concentrate (5 mL) was washed three times with sterile PBS and centrifuged at 500× g for 3 min. The obtained pellet was resuspended using sterile PBS in order to obtain a 2% suspension of RBCs, which was subsequently mixed with 1 mL of different concentrations (i.e., […]) of 2, 7, 8, and 10. The mixtures were incubated at 37 °C for 30 min and centrifuged at 1400× g for 10 min. The amount of free hemoglobin in the supernatants was measured spectrophotometrically at 405 nm. Negative and positive controls were performed by incubating RBCs with sterile PBS and 0.1% Triton-X, respectively. Each experiment was run in triplicate.

in vitro = in vitro ADME; details: PAMPA, pH 7.4
Protocol: BBB permeability of 2, 7, 8, and 10 was investigated using a parallel artificial membrane permeability assay (PAMPA) method. The PAMPA system, which consisted of a 96-well microfilter plate, was divided into the following two chambers: a donor at the bottom and an acceptor at the top, separated by a 120 µm thick microfilter disc coated with BBB lipid solution (Pion, Inc., Billerica, MA, USA). The solutions of 2, 7, 8, and 10 were prepared in dimethylsulfoxide (DMSO) at 4 mg/mL concentration, and then diluted with Prisma buffer (pH = 7.4) to obtain the donor drug solution with the final nominal concentration of 20 µg/mL. Then, 180 µL of the donor solution was added to the donor wells. Subsequently, each filter membrane of the top plate was coated with 5 µL of BBB-1 lipid solution (Pion Inc., Billerica, MA, USA) and the acceptor well was filled with 200 µL of brain sink buffer (BSB). The acceptor plate and the donor plate were sandwiched together and incubated at 37 °C for 180 min.
The permeability coefficient value (Pe) was calculated using the following equation: Pe=−ln (1−CA/Cequilibrium)/S×(1/VD+1/VA)×t where VD—donor volume, VA—acceptor volume, Cequilibrium—equilibrium concentration, Cequilibrium=CD×VD+CA×VA/VD+VA , CD—donor concentration, CA—acceptor concentration, S—membrane area and t—incubation time (in seconds).

[3] = concentration reducing Hs27 viability by 30%, MTT, 24 h

Row | SMILES | SI (selectivity index, CC30/IC50Tg) [1] | IC50 [1] [µg/mL] | CC30 in Hs27 Cells (Hs27 cells; [3]) [µg/mL] | CC30 in Hs27 Cells (Hs27 cells; human) [µg/mL] | IC50 (T98G glioblastoma cells) [µg/mL] | Toxicity to zebrafish embryos and larvae [2] | Mortality and deformity [2] [%] | Hemolytic activity (in words) (human red blood cells) | Papp at 180 min, 20 µg/mL (in vitro) [×10⁻⁶ cm/s] | Concentration at which the impact on occurrence of deformations was noticeable [2] [ng/mL]
1 | O=C1C(O)=C([C@H]2CC[C@H](c3ccc(Cl)cc3)CC2)C(=O)c2ccccc21 [ATO, atovaquone, reference compound] | 227.55 | 0.24 (≈ 0.654 µM) | 54.26 (≈ 148 µM) | – | – | – | – | – | – | –
2 | CCc1nc(N)nc(N)c1-c1ccc(Cl)cc1 [PYR, pyrimethamine, reference compound] | 17.38 | 2.86 (≈ 11.5 µM) | 49.62 (≈ 200 µM) | – | – | – | – | – | – | –
3 | Nc1ccc(S(=O)(=O)Nc2ncccn2)cc1 [SDZ, sulfadiazine, reference compound] | 1.78 | 1250 (≈ 5010 µM) | – | 2230.61 (≈ 8910 µM) | – | – | – | – | – | –
4 | COc1cc(Cc2cnc(N)nc2N)cc(OC)c1OC [TRI, trimethoprim, reference compound] | 5.53 | 14.8 (≈ 50.9 µM) | – | 81.82 (≈ 282 µM) | – | – | – | – | – | –
5 | Cn1nnc2c(C(N)=O)ncn2c1=O [Temozolomide, temozolomide, reference compound] | – | – | – | – | > 100 | – | – | – | – | –
6 | O=C(/C=C1\SC(=O)NC1=O)Oc1cccc(/C=N/NC(=O)c2ccncc2)c1 [compound 1] | 9.92 | 12.9 (≈ 32.6 µM) | 128.27 (≈ 324 µM) | – | – | – | – | – | – | –
7 | O=C(CC1SC(=O)NC1=O)Oc1ccc(/C=N/NC(=O)c2ccncc2)cc1 (centres unmarked) [compound 2] | >118.93 | 8.37 (≈ 21 µM) | >995.98 | – | 19.4 ± 1.13 (≈ 48.6 µM) | not toxic | 100 | no specific hemolytic activity | 12.4 ± 1.02 | –
8 | COc1cc(/C=N/NC(=O)c2ccncc2)ccc1OC(=O)CC1SC(=O)NC1=O (centres unmarked) [compound 3] | >48.35 | 22.1 (≈ 51.7 µM) | >1071.05 | – | – | – | – | – | – | –
9 | CCOc1cc(/C=N/NC(=O)c2ccncc2)ccc1OC(=O)CC1SC(=O)NC1=O (centres unmarked) [compound 4] | 16.77 | 39 (≈ 88.2 µM) | 654.42 (≈ 1480 µM) | – | – | – | – | – | – | –
10 | O=C(CC1SC(=O)NC1=O)Oc1ccc(/C=N/NC(=O)c2ccncc2)cc1Cl (centres unmarked) [compound 5] | >44.48 | 24.3 (≈ 56.2 µM) | >1082.10 | – | – | – | – | – | – | –
11 | O=C(CC1SC(=O)NC1=O)Oc1ccc(/C=N/NC(=O)c2ccncc2)cc1Br (centres unmarked) [compound 6] | >43.81 | 27.2 (≈ 57.1 µM) | >1193.22 | – | – | – | – | – | – | –
12 | NC(=S)N/N=C/c1ccc(OC(=O)CC2SC(=O)NC2=O)cc1 (centres unmarked) [compound 7] | >148.28 | 5.94 (≈ 16.9 µM) | >880.97 | – | > 100 | not toxic | 100 | no specific hemolytic activity | 23.1 ± 0.71 | 25000
13 | NC(=S)N/N=C/c1ccc(OC(=O)CC2SC(=O)NC2=O)c(Cl)c1 (centres unmarked) [compound 8] | >110.67 | 8.74 (≈ 22.6 µM) | >967.09 | – | > 100 | not toxic | 100 | no specific hemolytic activity | 26.1 ± 1.3 | 25000
14 | NC(=S)N/N=C/c1ccc(OC(=O)CC2SC(=O)NC2=O)c(Br)c1 (centres unmarked) [compound 9] | >87.75 | 12.3 (≈ 28.5 µM) | >1078.21 | – | – | – | – | – | – | –
15 | NC(=S)N/N=C/c1ccc(OC(=O)/C=C2\SC(=O)NC2=O)cc1 [compound 10] | 58.71 | 5.32 (≈ 15.2 µM) | 312.27 (≈ 891 µM) | – | 94.6 ± 6.16 (≈ 270 µM) | not toxic | 100 | no specific hemolytic activity | 24.4 ± 0.93 | –
16 | COc1cc(/C=N/NC(N)=S)ccc1OC(=O)/C=C1\SC(=O)NC1=O [compound 11] | >78.81 | 12.1 (≈ 31.7 µM) | >951.00 | – | – | – | – | – | – | –
17 | NC(=S)N/N=C/c1ccc(OC(=O)/C=C2\SC(=O)NC2=O)c(Cl)c1 [compound 12] | >94.59 | 10.2 (≈ 26.4 µM) | >962.05 | – | – | – | – | – | – | –
